Measurements: ChEMBL document CHEMBL2074138, “New multidrug-resistance-reversing drugs, MS-209 and SDZ PSC 833” (Cancer Chemother Pharmacol, 1997)

Target: ATP-dependent translocase ABCB1 (Homo sapiens, UniProt P08183)
Assay: TP_TRANSPORTER: increase in Doxorubicin intracellular accumulation (Doxorubicin: 0.05 ug/mL, MS-209: 3 uM) in K562/ADM cells
Type: functional, cell-based
Details: k562/adr

Sequence of ATP-dependent translocase ABCB1 (P08183 whole entry): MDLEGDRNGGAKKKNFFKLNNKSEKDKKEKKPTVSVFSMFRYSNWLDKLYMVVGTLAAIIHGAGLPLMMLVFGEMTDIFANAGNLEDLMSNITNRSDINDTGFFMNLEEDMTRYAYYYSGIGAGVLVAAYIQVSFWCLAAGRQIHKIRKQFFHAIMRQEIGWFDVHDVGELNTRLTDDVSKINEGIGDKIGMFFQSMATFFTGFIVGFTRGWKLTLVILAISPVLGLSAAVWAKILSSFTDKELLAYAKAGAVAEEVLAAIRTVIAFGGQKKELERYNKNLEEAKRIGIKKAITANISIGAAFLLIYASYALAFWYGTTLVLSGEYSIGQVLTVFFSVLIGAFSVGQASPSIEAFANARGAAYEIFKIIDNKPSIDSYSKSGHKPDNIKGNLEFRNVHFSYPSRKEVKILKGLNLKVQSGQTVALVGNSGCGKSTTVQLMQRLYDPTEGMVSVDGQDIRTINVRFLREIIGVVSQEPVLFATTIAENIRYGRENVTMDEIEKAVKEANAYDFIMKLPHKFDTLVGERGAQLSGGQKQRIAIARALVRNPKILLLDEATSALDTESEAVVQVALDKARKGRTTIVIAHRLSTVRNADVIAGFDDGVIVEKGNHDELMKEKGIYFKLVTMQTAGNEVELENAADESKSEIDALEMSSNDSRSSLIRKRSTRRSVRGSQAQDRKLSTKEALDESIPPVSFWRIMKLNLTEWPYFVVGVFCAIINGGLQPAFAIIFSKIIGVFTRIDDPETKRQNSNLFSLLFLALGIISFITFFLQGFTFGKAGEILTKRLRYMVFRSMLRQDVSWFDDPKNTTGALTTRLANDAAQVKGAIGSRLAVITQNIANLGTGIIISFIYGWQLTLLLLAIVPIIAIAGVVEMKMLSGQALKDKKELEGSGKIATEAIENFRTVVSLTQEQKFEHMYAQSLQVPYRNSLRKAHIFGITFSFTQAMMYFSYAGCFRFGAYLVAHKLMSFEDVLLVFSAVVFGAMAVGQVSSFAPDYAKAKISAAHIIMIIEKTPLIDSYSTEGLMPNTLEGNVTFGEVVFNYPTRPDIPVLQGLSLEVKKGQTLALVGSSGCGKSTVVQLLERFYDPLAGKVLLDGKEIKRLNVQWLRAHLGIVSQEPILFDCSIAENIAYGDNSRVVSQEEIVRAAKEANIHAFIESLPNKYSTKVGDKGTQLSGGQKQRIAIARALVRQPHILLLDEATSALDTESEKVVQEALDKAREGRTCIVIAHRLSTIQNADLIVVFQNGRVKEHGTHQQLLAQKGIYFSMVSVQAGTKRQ

`O=C(C(c1ccccc1)c1ccccc1)N1CCN(C[C@@H](O)COc2cccc3ncccc23)CC1` was tested, and the Activity was “inhibitor [+]”.
